# Assay results as given in publication PMC4635624, “In vitro and in vivo single-agent efficacy of checkpoint kinase inhibition in acute lymphoblastic leukemia” (Journal of Hematology & Oncology, 2015).
# Several values for one entry are separate records, joined by “and”; a condition that tells them apart may be missing. Identical values can stand only once. Like-named read-outs stand apart in the source and are kept apart here.
# Key:
# Type in all cases: cell-based, human
# [1] = test system: Chk1 pathway (Chk1-Cdc25-Cdc2) in BV-173 and NALM-6 cells; assay: Western blot analysis of Chk1 pathway
# From the text: In order to assess whether PF-00477736 efficiently targeted Chk1 pathway, we examined the changes in the downstream phosphorylation of the phosphatase Cdc25C and cyclin-dependent kinase, Cdc2. Moreover, Chk1 itself and γ-H2A.X, which is a marker of stalling replication forks and checkpoint abrogation-induced apoptosis, have been assessed. Functional analyses were initially performed on the most sensitive (BV-173) and the most resistant (NALM-6) B-ALL cell lines, as determined by the viability and apoptosis analyses. Specifically, BV-173 cells were treated with 0.05, 0.1, and 0.2 μM and NALM-6 with 0.1, 0.5, and 1 μM of PF-00477736 for 24 h (Fig. 3a). In the second analysis, BV-173 and NALM-6 cells were treated with the dose of PF-00477736 that goes near to the IC50 (0.1 μM for BV-173 and 1 μM for NALM-6) for 18, 24, 30, and 48 h (Fig. 3b). Thereafter, the same molecular targets have been assessed on all B- and T-ALL cell lines using the dose that goes near to the IC50 (Additional file 1: Figure S4). Active Chk1 phosphorylates Cdc25C at serine 216 throughout the interphase and upon G2 checkpoint activation. This leads to the nuclear export of Cdc25C and its subsequent cytoplasmic sequestration by 14-3-3 protein, which prevents the activation of the downstream target of Cdc25C, the cyclin B/Cdc2 kinase that is responsible for G2/M transition. […] Although the increment of the phosphorylated forms of Chk1 (Ser317 and Ser345) as a consequence of genomic damage amplification, the complete inhibition of Chk1 functionality was confirmed by the progressive reduction of the auto-phosphorylated form of Chk1 (Ser296) in an early time point analysis.
# (§1) To gain insight into the molecular mechanisms responsible for cell death following treatment, functional analyses by Western blot were performed. Leukemia cell lines were plated in six-well plates at 500,000 cell/1 ml with increasing concentrations of drug for 24 h and incubated at 37 °C. After the treatment, the cells were collected and lysate using a specific buffer made of KH2PO4 0.1 M (pH 7.5), Igepal 1 % (NP-40), β-glicerofosfato 0.1 mM, and complete protease inhibitor cocktail 1× (Roche Diagnostics). […] Finally, all these antibodies were detected using the enhanced chemiluminescence kit ECL (GE) and the compact darkroom ChemiDoc-It (UVP).
# leukemia cell lines = assay: PARP-1 cleavage by Western blot; conditions: 24 h of drug exposure; undetectable with DMSO 0.1 %
# Procedure: In order to assess whether cytotoxicity was correlated to increased susceptibility to apoptosis, B-/T-ALL cell lines were incubated with increasing concentrations of drug (0.1, 0.5, and 1 μM and 0.05, 0.1, and 0.2 μM only for BV-173 and RPMI-8402, respectively) for 24 and 48 h. […] The induction of apoptosis by PF-00477736 was also assessed by the detection of poly (ADP-ribose) polymerase (PARP) cleavage by Western blot analysis.
# as §1
# BV-173 cells = assay: γ-H2A.X immunofluorescence analysis
# Procedure: The so-called hyper-γ-H2A.X-positive cells loose the typical foci signal of γ-H2A.X and emit a much higher and diffuse signal of γ-H2A.X positivity.
# NALM-6 and BV-173 cells were seeded to poly-D lysine-coated slides, fixed with 4 % PFA (paraformaldehyde), and stained at 37 °C with a mouse anti-H2A.X-Phosphorylated Alexa 647 conjugated antibody (BioLegend). Then, they were treated with DAPI (4.6 diamidino-2-phenylindole; Sigma Aldrich), and the slides were mounted with Mowiol (Calbiochem). Images were acquired with wide field fluorescence microscope Olympus BX61 fully motorized driven by Metamorph software, and the analysis was performed using the freeware ImageJ software.
# NALM-6 (B-ALL) cells = assay: Cell viability assay (WST-1); conditions: NALM-6, 24 h exposure, TP53 wild-type
# Procedure: (§2) B-/T-ALL cell lines were incubated with increasing concentrations of drug (5–1000 nM) for 24 and 48 h.
# (§3) In order to assess the cell viability after treatment with PF-00477736 (Pfizer), ALL cell lines were seeded in 96-well plates at 50,000 cell/100 μl/well with increasing concentrations of drug (0.005–2 μM) for 24 and 48 h and incubated at 37 °C. Cell viability was assessed by adding WST-1 reagent (Roche Applied Science, Basel, Switzerland) to the culture medium at 1:10 dilution. Cells were incubated at 37 °C, and the optical density was measured by microplate ELISA reader at λ = 450 after 3 h. The amount of the formazan formed directly correlates to the number of metabolically active cells. All viability experiments were performed in triplicates and repeated in least two separated experiments. In ex-vivo primary leukemia cells, the effects on cell viability were assessed by counting viable and non-viable cell numbers by the trypan blue dye exclusion method. Cells were seeded in six-well plates at 500,000 cell/1 ml with increasing concentrations of drug (0.1, 0.5, and 1 μM) for 24 h and incubated at 37 °C. Cellular viability was calculated as a percentage of the viable cells compared to the untreated controls (DMSO 0.1 %).
# RPMI-8402 (T-ALL) cells = assay: Cell viability assay (WST-1); conditions: RPMI-8402, 24 h exposure, p53 mutated
# Procedure: as §2, §3
# primary ALL blast cells = assay: Ex-vivo viability of primary leukemia cells (trypan blue dye exclusion)
# Procedure: The efficacy of PF-00477736 was confirmed in primary blast cells from 14 newly diagnosed cases including ten BCR-ABL1-positive (71 %) cases and four BCR-ABL1-negative ALL cases (29 %). Leukemic cells were incubated with increasing concentrations of drug (0.1, 0.5, and 1 μM) for 24 h. […]
# as §3, with “The amount of the formazan formed directly correlates to the number of metabolically active cells. All viability experiments were performed in triplicates and repeated in least two separated experiments.” left out, “Cells were seeded in six-well plates at 500,000 cell/1 ml with increasing concentrations of drug (0.1, 0.5, and 1 μM) for 24 h and incubated at 37 °C.” left out
smiles,measurement,setting,value
Cn1cc(-c2[nH]c3cc(NC(=O)[C@H](N)C4CCCCC4)cc4c3c2C=NNC4=O)cn1 [PF-00477736],phosphorylated forms of Chk1 (Ser317 and Ser345),"[1]; BV-173 0.05-0.2 μM, NALM-6 0.1-1 μM, 24 h",dose-dependently increased
same,γ-H2A.X level,"[1]; Western blot and immunofluorescence, 18, 24, 30, 48 h at dose near IC50",time-dependently increase of γ-H2A.X
same,auto-phosphorylated form of Chk1 (Ser296),"[1]; after 3 h of treatment, BV-173 and NALM-6, vs untreated",drastically reduced
same,phosphorylated Cdc25c (Ser216) and Cdc2 (Tyr 15) levels,"[1]; dose- and time-dependent, BV-173 0.05-0.2 μM, NALM-6 0.1-1 μM",decreased levels of phosphorylated Cdc25c (Ser216) and Cdc2 (Tyr 15)
same,PARP-1 cleavage,leukemia cell lines,PARP-1 cleavage band at 89 kDa was observed
same,"fold change of mean value intensity of γ-H2A.X, treated vs untreated",BV-173 cells; BV-173 γ-H2A.X positive cells,five-fold
same,hyper-γ-H2A.X-positive cells among γ-H2A.X-positive cells,"BV-173 cells; treated cells, 1.8 % in the untreated controls",~6.5%
same,IC50,NALM-6 (B-ALL) cells,1420 nM
same,IC50,RPMI-8402 (T-ALL) cells,57.4 nM
same,IC50,"primary ALL blast cells; primary ALL sample of one patient per table row (ID in c1), class of IC50 at 24 hours, read-out: Sensitivity",500 to 1000 nM and 100 to 500 nM
same,IC50,"primary ALL blast cells; primary blast cells, 21 % (3/14) of cases, 24 h, read-out: IC50 at 24 h, poor responders",> 1000 nM
